# Article PMC7024211, “Antifouling Napyradiomycins from Marine-Derived Actinomycetes Streptomyces aculeolatus” (Marine Drugs, 2020)
# Tests used:
# [1] = Mussel plantigrade larvae settlement, 15 h acute exposure assay; assay type: in vivo; settings: Mytilus galloprovincialis (mussel, plantigrade larvae), in vivo, no mortality at highest tested concentration 12 µg/mL
# Description: (§1) Mussel (M. galloprovincialis) adhesive larvae (plantigrades) were used to assess in vivo the antifouling activity of napyradiomycins (1–12) towards macrofouling. Juvenile mussel aggregates were collected at the intertidal rocky shore during low spring tides, at Memória beach, Matosinhos, Portugal (41°13′59″ N; 8°43′28″ W). At the laboratory, immediately before the bioassays, mussel plantigrade larvae were screened and isolated from the juvenile aggregates using a binocular microscope (Olympus SZX2-ILLT, Hamburg, Germany) and washed with filtered seawater to remove organic debris. Only competent plantigrade larvae (those showing foot exploratory behavior) were selected and used in the exposure bioassays following previously validated procedures. Plantigrades were exposed in 24-well polystyrene plates for 15 h in the darkness at 18 °C. DMSO was used as solvent for crude extracts, fractions and pure compounds stock and working solutions. Working solutions were prepared by successive dilutions of stock solutions in DMSO and then diluted in filtered seawater to obtain the test solutions. DMSO concentration in test solutions was always 0.1%. Four well replicates were used per condition with five larvae per well. Two negative controls, one with ultra-pure water and the other with DMSO 0.1% were included in all bioassays, as well as a positive control with 5 μM CuSO4 (a potent antifouling agent). Anti-settlement bioactivity was determined by the presence/absence of fixed byssal threads produced by each individual larvae for all the conditions tested. […] Chi-square Pearsons goodness-of-fit test was applied to data in order to determine EC50. Significance was considered at p < 0.01 for all analyses, and 95% lower and upper confidence limits [95% LCL; UCL] were presented. Therapeutic ratio (LC50/EC50) was used to evaluate the effectiveness vs. toxicity of compounds [19, 21].
# [2] = test system: M. galloprovincialis plantigrade larvae; test: as above; assay type: in vivo; settings: Mytilus galloprovincialis, 15 h, 95% LCL, UCL in brackets, read-out: EC50 [Conf. limits] larval settlement
# Description: as §1
# P. inhibens [3] = test: Bacterial growth inhibition assay (OD600nm); assay type: cell-based, Phaeobacter inhibens; settings: 31.25 µg/mL
# Description: (§2) As a first screening approach, liquid cultures of M. hydrocarbonoclasticus, and C. marina in a 96-well format were analyzed for bacterial growth inhibition by percent decrease in OD600 after incubation with napyradiomycins (1–12) at 31.25 µg/mL.
# Five marine bacterial species were used as models to assess antimicrofouling activity. The biofilm-forming marine bacteria Marinobacter hydrocarbonoclasticus DSM 8798 (ATCC 49840), Cobetia marina DSM 4741, Phaeobacter inhibens DSM 17,395, and Pseusooceanicola batsensis DSM 15,984 were obtained from DSMZ (Leibniz Institute DSMZ—German collection of Microorganisms and Cell Cultures) and Micrococcus luteus. […]
# The antibacterial activity of the napyradiomycins (1–12) was assessed in 96-well polystyrene flat bottom microplates (Nunclon Delta Surface, Thermo Scientific, Roskilde, Denmark) following previously reported procedures. […] After 24 h (M. hydrocarbonoclasticus, C. marina) or 48 h (P. batsensis, P. inhibens, M. luteus) incubation, the OD600nm was determined (Molecular Devices, Spectra Max 190). […] The percentage of growth inhibition was calculated as the amount of growth relative to that of the bacterial species without added compounds (with the same amount of DMSO added). […]
# C. marina [4] = test: Biofilm inhibition assay (crystal violet); assay type: cell-based, Cobetia marina; settings: 31.25 µg/mL
# Description: (§3) In a 96-well plate, biofilm grown cultures of M. hydrocarbonoclasticus and C. marina were incubated with napyradiomycins (1–12) at a concentration of 31.25 µg/mL. After discarding the media, biofilm inhibition was determined from OD600 measurements of crystal violet stained cells resuspended from the plate bottom with acetic acid.
# (§4) Five marine bacterial species were used as models to assess antimicrofouling activity. The biofilm-forming marine bacteria Marinobacter hydrocarbonoclasticus DSM 8798 (ATCC 49840), Cobetia marina DSM 4741, Phaeobacter inhibens DSM 17,395, and Pseusooceanicola batsensis DSM 15,984 were obtained from DSMZ (Leibniz Institute DSMZ—German collection of Microorganisms and Cell Cultures) and Micrococcus luteus. Cultures were routinely grown in liquid marine broth (Carl Roth GmbH, Karlsruhe, Germany) with agitation (180 rpm) or on agar-supplemented marine broth, at 28 °C (M. hydrocarbonoclasticus and C. marina) or 30 °C (P. inhibens and P. batsensis). M. luteus was maintained in Brain Heart Infusion broth (BHI, Becton Dickinson, GmbH, Heidelberg, Germany) with agitation (180 rpm) or on agar-supplemented BHI, at 37 °C.
# (§5) The antibiofilm activity of napyradiomycins (1–12) against the five marine bacterial species was assessed in 96-well polystyrene flat bottom microplates (Nunclon Delta Surface, Thermo Scientific, Roskilde, Denmark) as previously reported. For initial screening, bacterial overnight cultures were diluted to an optical density (OD600nm) value of 0.2 and incubated statically at 28 °C (M. hydrocarbonoclasticus, C. marina), 30 °C (P. inhibens, P. batsensis) or 37 °C (M. luteus) in the 96-well microplate in the presence or absence of 31.25 µg/mL of napyradiomycins, solubilized in DMSO. After 24 h (M. hydrocarbonoclasticus, C. marina) or 48 h (P. batsensis, P. inhibens, M. luteus) incubation, the OD600nm was determined. The planktonic cells and media were discarded, and the wells were washed twice with deionized water. The biofilm was fixed for 1 h at 60 °C and stained with crystal violet 0.06% for 10 min. The dye was discarded, and the wells were again washed twice with deionized water. The stained biofilm was solubilized with 30% acetic acid and the OD600nm was determined. […] The percentage of biofilm inhibition was calculated as the amount of biofilm relative to that of the bacterial species without added compounds (with the same amount of DMSO added). CuSO4 (5 μM), a potent antifouling agent used in antifouling paints, was used as reference.
# (§6) All assays were performed in triplicate, and results are representative of the average and standard error of the mean (SEM). Statistical analysis was performed in GraphPad Prism 8.0.2, using one-way ANOVA followed by a Dunnett’s multiple comparisons test against the control (species grown with the same amount of DMSO added).
# M. luteus [5] = test: Bacterial growth inhibition assay (OD600nm); assay type: cell-based, Micrococcus luteus; settings: 31.25 µg/mL
# Source text: as §4
# (§7) The antibacterial activity of the napyradiomycins (1–12) was assessed in 96-well polystyrene flat bottom microplates (Nunclon Delta Surface, Thermo Scientific, Roskilde, Denmark) following previously reported procedures. […] After 24 h (M. hydrocarbonoclasticus, C. marina) or 48 h (P. batsensis, P. inhibens, M. luteus) incubation, the OD600nm was determined (Molecular Devices, Spectra Max 190). […] The percentage of growth inhibition was calculated as the amount of growth relative to that of the bacterial species without added compounds (with the same amount of DMSO added). CuSO4 (5 μM), a potent antifouling agent used in antifouling paints, was used as reference.
# as §6, with “8.0.2 (San Diego, CA, USA),” for “8.0.2,”
# C. marina [6] = test: Bacterial growth inhibition assay (OD600nm); assay type: cell-based, Cobetia marina; settings: 31.25 µg/mL
# Source text: as §4, §7
# as §6, with “8.0.2 (San Diego, CA, USA),” for “8.0.2,”
# M. hydrocarbonoclasticus [7] = test: Bacterial growth inhibition assay (OD600nm); assay type: cell-based, Marinobacter hydrocarbonoclasticus; settings: 31.25 µg/mL
# Description: as §2, §4
# (§8) The antibacterial activity of the napyradiomycins (1–12) was assessed in 96-well polystyrene flat bottom microplates (Nunclon Delta Surface, Thermo Scientific, Roskilde, Denmark) following previously reported procedures. For initial screening, bacterial overnight cultures were diluted to an optical density (OD600nm) of 0.2 and incubated statically at 28 °C (M. hydrocarbonoclasticus, C. marina), 30 °C (P. inhibens, P. batsensis) or 37 °C (M. luteus) in a 96-well microplate in the presence or absence of 31.25 µg/mL of the napyradiomycins, solubilized in DMSO. After 24 h (M. hydrocarbonoclasticus, C. marina) or 48 h (P. batsensis, P. inhibens, M. luteus) incubation, the OD600nm was determined (Molecular Devices, Spectra Max 190). […] The percentage of growth inhibition was calculated as the amount of growth relative to that of the bacterial species without added compounds (with the same amount of DMSO added). CuSO4 (5 μM), a potent antifouling agent used in antifouling paints, was used as reference.
# as §6, with “8.0.2 (San Diego, CA, USA),” for “8.0.2,”
# P. batsensis [8] = test: Biofilm inhibition assay (crystal violet); assay type: cell-based, Pseudooceanicola batsensis; settings: 31.25 µg/mL
# Description: as §3, §4, §5, §6
# M. luteus [9] = test: Biofilm inhibition assay (crystal violet); assay type: cell-based, Micrococcus luteus; settings: 31.25 µg/mL
# Description: as §3, §4, §5, §6
# M. hydrocarbonoclasticus [10] = test: Biofilm inhibition assay (crystal violet); assay type: cell-based, Marinobacter hydrocarbonoclasticus; settings: Marinobacter nauticus
# Description: as §3, §4, §5, §6
# P. inhibens [11] = test: Biofilm inhibition assay (crystal violet); assay type: cell-based, Phaeobacter inhibens; settings: 31.25 µg/mL
# Description: as §3, §4, §5
# All assays were performed in triplicate, and results are representative of the average and standard error of the mean (SEM). […]
# P. batsensis [12] = test: Bacterial growth inhibition assay (OD600nm); assay type: cell-based, Pseudooceanicola batsensis; settings: 31.25 µg/mL
# Description: as §2, §4, §8
# as §6, with “8.0.2 (San Diego, CA, USA),” for “8.0.2,”
# M. edulis = test system: M. edulis; set-up: method as in doi:10.1016/S0044-8486(97)00209-3; settings: against M. edulis ref 62; cited from earlier work
Compound,LC50 at 15 h [1] [mg/L],EC50 [2] [mg/L],% growth inhibition P. inhibens (P. inhibens [3]),% Biofilm Inhibition ± SEM C. marina (C. marina [4]),% growth inhibition M. luteus (M. luteus [5]),% growth inhibition C. marina (C. marina [6]),% growth inhibition M. hydrocarbonoclasticus (M. hydrocarbonoclasticus [7]),% Biofilm Inhibition ± SEM P. batsensis (P. batsensis [8]),% Biofilm Inhibition ± SEM M. luteus (M. luteus [9]),"inhibition at 0.98 µg/mL (M. hydrocarbonoclasticus [10]; 0.98 µg/mL, read-out: % inhibition of biofilm formation M. hydro.) [%]","inhibition at 1.95 µg/mL (M. hydrocarbonoclasticus [10]; 1.95 µg/mL, read-out: % inhibition of biofilm formation M. hydro.) [%]","inhibition at 15.6 µg/mL (M. hydrocarbonoclasticus [10]; 15.6 µg/mL, read-out: % inhibition of biofilm formation M. hydro.) [%]","inhibition at 31.25 µg/mL (M. hydrocarbonoclasticus [10]; 31.25 µg/mL, read-out: % Biofilm Inhibition ± SEM M. hydrocarbonoclasticus) [%]",% Biofilm Inhibition ± SEM P. inhibens (P. inhibens [11]),% growth inhibition P. batsensis (P. batsensis [12]),EC50 (M. edulis) [mg/L]
"CC(=CCCC(C)=CCC12OC(C)(C)C(Cl)CC1(Cl)C(=O)c1c(O)cc(O)cc1C2=O)CO (stereo not shown) [Napyradiomycin 2, 18-hydroxynapyradiomycin A1]",> 12,2,did not inhibit growth,N.I.,did not inhibit growth,did not inhibit growth,did not inhibit growth,N.I.,N.I.,24.6 ± 9.8,56.5 ± 5.7,56.6 ± 0.9,60.2 ± 5.7,N.I.,did not inhibit growth,
ivermectin,,,,,,,,,,,,,,,,0.4
